Experimental data as given in patent publication US5756120A, “Antibiotic formulation and use for drug resistant infections” (NeXstar Pharmaceuticals, Inc., priority 1995, dated 1998).
Values joined by “and” are separate entries in the source; they are usually repeats but may differ in a detail not shown here. Equal values may be shown once. “Also recorded” adds a separate entry of the source. Read-outs that look alike come from different tables or passages of the source.

System: M. tuberculosis drug resistant strain Vertulla
Format: cell-based
Details: for CFU (1 × 10^3): duplicate values; for inhibition or killing of drug resistant M. tuberculosis: concentrations tested (4, 8 and 16 μg/ml)

For `NCC[C@H](O)C(=O)N[C@@H]1C[C@H](N)[C@@H](O[C@H]2O[C@H](CN)[C@@H](O)[C@H](O)[C@H]2O)[C@H](O)[C@H]1O[C@H]1O[C@H](CO)[C@@H](O)[C@H](N)[C@H]1O` [amikacin], the “Avg. log CFU” value (4 μg/ml, day 4) was 3.9 log CFU, the “CFU (1 × 10^3)” value (4 μg/ml, day 4) was 9.3 1 × 10^3 CFU and 8.0 1 × 10^3 CFU and the “Avg. log CFU” value (4 μg/ml, day 7) was 5.2 log CFU. For the same molecule, the “Avg. log CFU” value (8 μg/ml, day 4) was 3.7 log CFU, the “CFU (1 × 10^3)” value (8 μg/ml, day 4) was 5 1 × 10^3 CFU and 4 1 × 10^3 CFU and the “Avg. log CFU” value (8 μg/ml, day 7) was 3.7 log CFU. The “CFU (1 × 10^3)” value (8 μg/ml, day 7) was 4.5 1 × 10^3 CFU and 6.2 1 × 10^3 CFU, the “Avg. log CFU” value (16 μg/ml, day 4) was 3.7 log CFU and the “CFU (1 × 10^3)” value (16 μg/ml, day 4) was 5 1 × 10^3 CFU and 5.4 1 × 10^3 CFU. The “Avg. log CFU” value (16 μg/ml, day 7) was 3.6 log CFU, the “CFU (1 × 10^3)” value (16 μg/ml, day 7) was 3.7 1 × 10^3 CFU and 4.1 1 × 10^3 CFU and the “inhibition or killing of drug resistant M. tuberculosis” value (listed as free amikacin) was “at the most, inhibition; also recorded: only inhibit the growth of the infection without killing at the concentrations tested”. The “inhibition or killing of drug resistant M. tuberculosis” value (listed as free drug) was “only inhibits the growth of the bacteria”.
